Consider 3 molecules from publication PMC4990249, “Mitochondrial Probe Methyltriphenylphosphonium (TPMP) Inhibits the Krebs Cycle Enzyme 2-Oxoglutarate Dehydrogenase” (PLoS ONE, 2016).

Experiment [1] concerns the target T1, 2-oxoglutarate dehydrogenase complex (OGDHC) (Rattus norvegicus, UniProt Q01205+Q5XI78+Q6P6R2).
T1 sequence (Q5XI78 41-1023): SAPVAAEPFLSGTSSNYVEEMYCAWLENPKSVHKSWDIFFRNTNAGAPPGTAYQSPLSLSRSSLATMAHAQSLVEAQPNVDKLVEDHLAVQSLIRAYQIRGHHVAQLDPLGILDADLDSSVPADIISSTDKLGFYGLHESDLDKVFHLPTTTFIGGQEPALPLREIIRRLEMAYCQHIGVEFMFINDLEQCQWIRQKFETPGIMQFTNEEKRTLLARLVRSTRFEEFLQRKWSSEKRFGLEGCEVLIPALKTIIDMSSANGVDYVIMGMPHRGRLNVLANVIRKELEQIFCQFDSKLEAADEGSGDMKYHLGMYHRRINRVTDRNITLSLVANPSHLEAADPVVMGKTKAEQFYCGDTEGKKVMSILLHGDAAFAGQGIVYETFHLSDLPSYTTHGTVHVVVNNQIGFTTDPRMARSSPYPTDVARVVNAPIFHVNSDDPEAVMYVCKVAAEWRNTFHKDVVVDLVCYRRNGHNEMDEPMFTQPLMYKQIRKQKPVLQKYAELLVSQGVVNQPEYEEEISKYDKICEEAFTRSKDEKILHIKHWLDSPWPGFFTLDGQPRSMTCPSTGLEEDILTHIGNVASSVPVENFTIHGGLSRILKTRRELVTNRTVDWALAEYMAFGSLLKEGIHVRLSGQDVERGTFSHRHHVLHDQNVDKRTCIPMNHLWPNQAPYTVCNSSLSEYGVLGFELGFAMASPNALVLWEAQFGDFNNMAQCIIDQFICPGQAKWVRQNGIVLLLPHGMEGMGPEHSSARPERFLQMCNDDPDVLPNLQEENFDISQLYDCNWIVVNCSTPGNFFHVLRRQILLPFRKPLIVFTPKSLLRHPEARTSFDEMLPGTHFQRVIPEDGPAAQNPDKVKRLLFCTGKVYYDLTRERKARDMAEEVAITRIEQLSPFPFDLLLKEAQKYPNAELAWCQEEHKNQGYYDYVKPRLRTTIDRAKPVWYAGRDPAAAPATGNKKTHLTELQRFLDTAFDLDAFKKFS
T1 sequence (Q01205 69-454): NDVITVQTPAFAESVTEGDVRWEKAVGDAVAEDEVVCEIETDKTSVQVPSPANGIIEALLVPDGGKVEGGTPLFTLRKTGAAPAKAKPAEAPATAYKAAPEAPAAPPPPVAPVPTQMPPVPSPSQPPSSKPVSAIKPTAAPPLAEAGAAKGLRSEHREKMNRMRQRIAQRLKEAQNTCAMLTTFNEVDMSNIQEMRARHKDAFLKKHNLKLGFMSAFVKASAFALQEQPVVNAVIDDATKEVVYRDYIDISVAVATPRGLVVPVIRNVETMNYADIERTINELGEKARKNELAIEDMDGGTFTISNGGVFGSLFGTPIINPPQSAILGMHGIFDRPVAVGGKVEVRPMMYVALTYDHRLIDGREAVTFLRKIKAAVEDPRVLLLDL
T1 sequence (Q6P6R2 36-509): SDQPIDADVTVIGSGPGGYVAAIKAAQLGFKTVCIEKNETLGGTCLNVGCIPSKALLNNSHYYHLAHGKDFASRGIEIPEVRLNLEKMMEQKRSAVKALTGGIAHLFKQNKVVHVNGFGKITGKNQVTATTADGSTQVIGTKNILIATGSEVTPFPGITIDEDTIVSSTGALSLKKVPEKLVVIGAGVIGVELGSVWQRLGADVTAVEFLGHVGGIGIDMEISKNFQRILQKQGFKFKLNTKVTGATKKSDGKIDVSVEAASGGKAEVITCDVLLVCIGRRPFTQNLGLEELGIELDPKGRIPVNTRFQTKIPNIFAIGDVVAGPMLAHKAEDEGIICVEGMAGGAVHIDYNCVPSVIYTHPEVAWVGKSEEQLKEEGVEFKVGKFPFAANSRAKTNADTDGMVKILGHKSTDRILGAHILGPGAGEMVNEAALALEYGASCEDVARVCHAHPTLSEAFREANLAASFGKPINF
Put plainly: spectrophotometric OGDHC activity (A340) at […] compound in muscle homogenate. The format is cell-based. On the set-up: gene Ogdh; native complex in rat skeletal muscle homogenate enriched in mitochondrial fraction; with E2 and E3 components of the complex. The conditions noted are these: read-out: % of control activity at 1 mM.

In experiment [2] the target is T2, 2-oxoglutarate dehydrogenase complex (OGDHC) (Sus scrofa, UniProt K9IVI1+P09623+Q9N0F1).
T2 construct: gene OGDH; purified OGDHC enzyme (Sigma K1502), intact complex; with E2 component (dihydrolipoyl transsuccinylase) and E3 component (dihydrolipoyl dehydrogenase) of the complex
T2 sequence (K9IVI1 41-1023): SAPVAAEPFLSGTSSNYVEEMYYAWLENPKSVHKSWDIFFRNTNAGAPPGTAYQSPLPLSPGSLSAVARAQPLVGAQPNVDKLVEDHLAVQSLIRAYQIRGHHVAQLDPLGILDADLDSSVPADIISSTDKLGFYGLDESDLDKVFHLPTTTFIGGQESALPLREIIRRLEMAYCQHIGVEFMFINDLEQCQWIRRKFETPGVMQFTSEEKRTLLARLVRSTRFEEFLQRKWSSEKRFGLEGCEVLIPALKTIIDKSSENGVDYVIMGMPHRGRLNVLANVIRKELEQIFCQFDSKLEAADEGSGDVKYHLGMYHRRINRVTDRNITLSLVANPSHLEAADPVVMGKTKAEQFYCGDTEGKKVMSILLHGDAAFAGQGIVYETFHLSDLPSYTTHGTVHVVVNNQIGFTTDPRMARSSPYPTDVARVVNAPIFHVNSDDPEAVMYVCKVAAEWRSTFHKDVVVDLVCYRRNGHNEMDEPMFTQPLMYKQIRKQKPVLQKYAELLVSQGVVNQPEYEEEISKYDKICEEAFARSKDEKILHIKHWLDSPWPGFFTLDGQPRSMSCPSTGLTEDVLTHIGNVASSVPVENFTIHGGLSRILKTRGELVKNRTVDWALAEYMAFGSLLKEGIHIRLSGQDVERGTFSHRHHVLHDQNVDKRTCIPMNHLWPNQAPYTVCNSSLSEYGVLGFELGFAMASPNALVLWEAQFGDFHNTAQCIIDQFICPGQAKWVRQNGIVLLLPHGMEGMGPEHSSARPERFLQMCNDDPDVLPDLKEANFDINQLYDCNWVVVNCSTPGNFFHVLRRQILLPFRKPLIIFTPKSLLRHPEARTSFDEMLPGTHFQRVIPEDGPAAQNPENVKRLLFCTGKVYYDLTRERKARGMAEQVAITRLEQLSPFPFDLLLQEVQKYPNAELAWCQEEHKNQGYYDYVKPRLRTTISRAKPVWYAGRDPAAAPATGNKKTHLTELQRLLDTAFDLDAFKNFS
T2 sequence (Q9N0F1 69-455): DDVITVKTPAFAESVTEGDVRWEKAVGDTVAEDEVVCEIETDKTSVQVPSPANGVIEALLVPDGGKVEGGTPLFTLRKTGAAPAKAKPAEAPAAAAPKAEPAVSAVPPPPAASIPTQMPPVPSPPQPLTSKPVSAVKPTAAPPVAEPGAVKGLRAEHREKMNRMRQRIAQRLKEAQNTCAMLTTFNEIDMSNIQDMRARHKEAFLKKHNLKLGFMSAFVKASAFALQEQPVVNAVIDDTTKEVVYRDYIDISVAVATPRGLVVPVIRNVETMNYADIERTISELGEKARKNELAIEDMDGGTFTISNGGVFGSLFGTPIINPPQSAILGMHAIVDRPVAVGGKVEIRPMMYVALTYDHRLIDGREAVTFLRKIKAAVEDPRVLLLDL
T2 sequence (P09623 36-509): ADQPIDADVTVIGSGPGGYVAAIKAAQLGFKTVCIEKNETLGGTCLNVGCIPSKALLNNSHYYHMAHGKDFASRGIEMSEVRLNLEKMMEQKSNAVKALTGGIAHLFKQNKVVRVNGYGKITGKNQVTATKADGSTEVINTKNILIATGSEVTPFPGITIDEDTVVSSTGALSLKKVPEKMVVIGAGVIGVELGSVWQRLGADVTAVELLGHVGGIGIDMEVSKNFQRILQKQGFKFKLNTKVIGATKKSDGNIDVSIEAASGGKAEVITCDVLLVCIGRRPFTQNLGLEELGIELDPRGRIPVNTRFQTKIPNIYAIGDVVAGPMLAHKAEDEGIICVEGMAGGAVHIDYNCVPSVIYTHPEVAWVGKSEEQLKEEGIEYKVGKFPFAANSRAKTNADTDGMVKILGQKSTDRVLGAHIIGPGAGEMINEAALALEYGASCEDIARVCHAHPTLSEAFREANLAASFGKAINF
The experiment in a line: Michaelis-Menten kinetics of purified complex, NADH absorbance at […] nm, […] TPMP. The format is biochemical.

Experiment [3] concerns the target T1, 2-oxoglutarate dehydrogenase complex (OGDHC). Put plainly: biochemical. Also noted: gene Ogdh.

Consider `CCCCC[P+](c1ccccc1)(c1ccccc1)c1ccccc1` [Pentyl, pentyltriphenylphosphonium], for which, in experiment [1], the remaining activity at 1000 µM was determined as 15.9%.

For the molecule `CCC[P+](c1ccccc1)(c1ccccc1)c1ccccc1` [Propyl, propyltriphenylphosphonium], the remaining activity at 1000 µM in experiment [1] was 60.7%.

As to `C[P+](c1ccccc1)(c1ccccc1)c1ccccc1` [TPMP, Methyltriphenylphosphonium], the “Michaelis-Menten kinetics of purified complex, NADH absorbance at 340 nm, 0-5 mM” value in experiment [2] was “The pattern of decreasing Vmax and increasing Km fits in a mixed-inhibition model”. Further, the IC50 in experiment [3] came to 3.93 mM.
